Test results as given in US20250064090A1 (priority 2020, published 2025).
Where two headings read alike, the source gives them in different places.

What was measured:
[1] = system: E. coli strains HT-99 (donor) and J53R (receptor); format: cell-based, Escherichia coli; settings: for Class of ingredient by conjugation frequency compared to control (in words): single ingredient, 100 mg/L, from Table 1
[2] = system: HT99 or J53R cells; format: cell-based, E. coli

SMILES: O=CC=Cc1ccccc1 [Cinnamaldehyde, cinnamaldehyde]
- Conjugation frequency [1]: 0.0014
- Conjugation frequency ([1]; 3 hours, 37° C.): 0.0011
- Conjugation compared to control (in words) ([1]; result in words): not affected
- Class of ingredient by conjugation frequency compared to control (in words) [1]: conjugation inert ingredient

SMILES: Cc1ccc(C(C)C)c(O)c1 [Thymol, thymol]
- Conjugation frequency ([1]; 3 hours, 37° C.): 0.0019
- Class of ingredient by conjugation frequency compared to control (in words) [1]: conjugation enhancers

SMILES: Cc1ccc(C(C)C)cc1O [Carvacrol, carvacrol]
- Conjugation frequency [1]: 0.0052
- Conjugation frequency ([1]; 3 hours, 37° C.): 0.0044
- Class of ingredient by conjugation frequency compared to control (in words) [1]: conjugation enhancers

SMILES: C=CC(C)(O)CCC=C(C)C (stereo not drawn) [Linalool, linalool]
- Conjugation frequency ([1]; 3 hours, 37° C.): 0.00085
- Class of ingredient by conjugation frequency compared to control (in words) [1]: conjugation inhibitors

SMILES: O=C(OC[C@H]1O[C@@H](OC(=O)c2cc(O)c(O)c(OC(=O)c3cc(O)c(O)c(O)c3)c2)[C@H](OC(=O)c2cc(O)c(O)c(OC(=O)c3cc(O)c(O)c(O)c3)c2)[C@@H](OC(=O)c2cc(O)c(O)c(OC(=O)c3cc(O)c(O)c(O)c3)c2)[C@@H]1OC(=O)c1cc(O)c(O)c(OC(=O)c2cc(O)c(O)c(O)c2)c1)c1cc(O)c(O)c(OC(=O)c2cc(O)c(O)c(O)c2)c1 [Tannic acid, tannic acid]
- Conjugation frequency ([1]; 3 hours, 37° C.): 0.00007
- Class of ingredient by conjugation frequency compared to control (in words) [1]: conjugation inhibitors

SMILES: CCCCCCCC/C=C\CCCCCCCC(=O)O [Oleic acid, oleic acid]
- Conjugation frequency ([1]; 3 hours, 37° C.): 0.00011
- Class of ingredient by conjugation frequency compared to control (in words) [1]: conjugation inhibitors
- expression of the yqfA gene (hemolysin III family protein) [2]: reduced
- fatty acid biosynthesis (fabB) gene expression upon treatment with oleic acid [2]: inhibition
- fatty acid degradation (fadB) gene expression upon treatment with oleic acid [2]: inducing

SMILES: CC(C)=CCCC(C)=CC=O [Citral, citral]
- Conjugation frequency ([1]; 3 hours, 37° C.): 0.0023
- Conjugation frequency ([1]; citral alone or mixed with conjugation inhibitors (100 mg of each per mL stock, 10 μL in 10 mL), control 0.0014): 0.0028
- Class of ingredient by conjugation frequency compared to control (in words) [1]: conjugation enhancers
